# Patent US6921541B2, “Formulations and methods for providing prolonged local anesthesia” (Euro-Celtique S.A., priority 1995, dated 2005)
# Like-named read-outs stand apart in the source and are kept apart here.
# How the values were obtained:
# [1] = immediate release vasoconstrictor; at best; cited from earlier work
# [2] = test system: rat sciatic nerve
# Method: The duration of local anesthesia induced by the bupivacaine-loaded microspheres, prepared from PLGA 65:35, with and without the co-administration of an augmenting agent, is tested in a rat sciatic nerve model for localized local anesthesia. […] The latency test determines the time, in seconds, before a rat withdraws its hindpaw from a hotplate set to a safe but uncomfortable temperature (56° C.).
# Maximum sciatic nerve sensory blockade is defined as having a latency of about 12 seconds or higher.
# In this example, a large number of pharmaceutical agents were tested for activity in augmenting the duration of local anesthetic activity. Bupivacaine-containing microspheres at about 75% loading, by weight, were injected perineurally into rat sciatic nerve at a dose of 150mg/kg (weight microspheres/weight rat) to dose of approximately 50 mg/nerve. For the injections, needle placement adjacent to the target nerve was optimized by intermittent electrical e stimulation of the target nerve (via the injection needle) with low amplitude current to produce limb flexion. For the injections, the microspheres were suspended in a carrier vehicle suitable for injection. While any pharmaceutically acceptable carrier vehicle is acceptable, for these experiments the carrier vehicle was 1% sodium carboxymethylcellulose and 1% Tween 80 in water.
# Compounds to be tested were co-injected with bupivacaine containing microspheres (i.e., mixed as additives into the carrier vehicle) in a range of concentrations. Results are expressed as percent increase in duration relative to non-augmented durations that were obtained in the same animal model.
Structure (SMILES),prolongation of local anesthetic activity [1],"Duration Anesthesia As Percent of Control ([2]; 0.1 % additive conc., Placebo (no bupivacaine))","Duration Anesthesia As Percent of Control (toxicity noted) ([2]; 10 % additive conc. in carrier vehicle, LAB 150 mg/kg)","Duration Anesthesia As Percent of Control ([2]; 10 % additive conc., no LAB)"
CNC[C@H](O)c1ccc(O)c(O)c1 [epinephrine],about 1 hour,,,
COc1cc2c(c(OC)c1OC)-c1ccc(OC)c(=O)cc1[C@@H](NC(C)=O)CC2 [Colchicine],,0% of Control,toxic,0% of Control
